According to patent US8809232B2, “Herbicidal compositions comprising 4-amino-3-chloro-5-fluoro-6-(4-chloro-2-fluoro-3-methoxyphenyl) pyridine-2-carboxylic acid or a derivative thereof and halosulfuron, pyrazosulfuron and esprocarb” (Dow Agrosciences LLC, priority 2012, dated 2014):

Tests used:
BRAPP = experiment: Post-emergence foliar-applied herbicidal mixtures, greenhouse, direct seeded rice weeds; format: in vivo
Excerpt: (§1) Seeds or nutlets of the desired test plant species were planted in a soil matrix prepared by mixing a loam or sandy loam soil (e.g., 28.6 percent silt, 18.8 percent clay, and 52.6 percent sand, with a pH of about 5.8 and an organic matter content of about 1.8 percent) and calcareous grit in an 80 to 20 ratio. The soil matrix was contained in plastic pots with a volume of 1 quart and a surface area of 83.6 square centimeters (cm^2). When required to ensure good germination and healthy plants, a fungicide treatment and/or other chemical or physical treatment was applied. The plants were grown for 8-22 days in a greenhouse with an approximate 14 hr photoperiod which was maintained at about 29° C. during the day and 26° C. during the night. Nutrients (Peters Excel® 15-5-15 5-Ca 2-Mg and iron chelate) were applied in the irrigation solution as needed and water was added on a regular basis. Supplemental lighting was provided with overhead metal halide 1000-Watt lamps as necessary. The plants were employed for testing when they reached the first through fourth true leaf stage.
(§2) Treatments consisted of the acid or esters of 4-amino-3-chloro-5-fluoro-6-(4-chloro-2-fluoro-3-methoxy-phenyl)pyridine-2-carboxylic acid (Compound A), each formulated as an SC (suspension concentrate), and various herbicidal components alone and in combination. Forms of compound A were applied on an acid equivalent basis.
(§3) Other herbicidal components were applied on an active ingredient basis and included the acetolactate synthase (ALS)-inhibiting herbicides halosulfuron-methyl formulated as Permit® 75 WDG, pyrazosulfuron-ethyl formulated as Agreen® WG or Sirius® G, and the VLCFA inhibiting herbicide esprocarb (technical grade material).
(§4) Treatment requirements were calculated based upon the rates being tested, the concentration of active ingredient or acid equivalent in the formulation, and a 12 mL application volume at a rate of 187 L/ha.
(§5) For treatments comprised of formulated compounds, measured amounts of compounds were placed individually in 25 mL glass vials and diluted in a volume of 1.25% (v/v) Agri-Dex® crop oil concentrated to obtain 12× stock solutions. […] Application solutions were prepared by adding an appropriate amount of each stock solution (e.g., 1 mL) and diluted to the appropriate final concentrations with the addition of 10 mL of an aqueous mixture of 1.25% (v/v) crop oil concentrate so that the final spray solutions contained 1.25+/−0.05% (v/v) crop oil concentrate.
(§6) For treatments comprised of technical compounds, weighed amounts can be placed individually in 25 mL glass vials and dissolved in a volume of 97:3 v/v acetone/DMSO to obtain 12× stock solutions. […] Application solutions can be prepared by adding an appropriate amount of each stock solution (e.g., 1 mL) and diluted to the appropriate final concentrations with the addition of 10 mL of an aqueous mixture of 1.5% (v/v) crop oil concentrate so that the final spray solutions contain 1.25% (v/v) crop oil concentrate. When technical materials are used, the concentrated stock solutions can be added to the spray solutions so that the final acetone and DMSO concentrations of the application solutions are 16.2% and 0.5%, respectively.
(§7) For treatments comprised of formulated and technical compounds, weighed amounts of the technical materials were placed individually in 25 mL glass vials and dissolved in a volume of 97:3 v/v acetone/DMSO to obtain 12× stock solutions, and measured amounts of the formulated compounds were placed individually in 25 mL glass vials and diluted in a volume of 1.5% (v/v) crop oil concentrate or water to obtain 12× stock solutions. […] Application solutions were prepared by adding an appropriate amount of each stock solution (e.g., 1 mL) and diluted to the appropriate final concentrations with the addition of an appropriate amount of an aqueous mixture of 1.5% (v/v) crop oil concentrate so that the final spray solutions contained 1.25% (v/v) crop oil concentrate. […]

LEFCH [1] = experiment: as above; format: in vivo, Leptochloa chinensis (L.) Nees
Excerpt: as §1, §2, §3, §4, §5, §6, §7

SCPMA = experiment: In-water applied herbicidal mixtures, greenhouse, transplanted paddy rice weeds; format: in vivo
Protocol: (§8) Weed seeds or nutlets of the desired test plant species were planted in puddled soil (mud) prepared by mixing a shredded, non-sterilized mineral soil (50.5 percent silt, 25.5 percent clay, and 24 percent sand, with a pH of about 7.6 and an organic matter content of about 2.9 percent) and water at a 1:1 volumetric ratio. The prepared mud was dispensed in 365 mL aliquots into 16-ounce (oz.) non-perforated plastic pots with a surface area of 86.59 square centimeters (cm^2) leaving a headspace of 3 centimeters (cm) in each pot Mud was allowed to dry overnight prior to planting or transplanting. Rice seeds were planted in Sun Gro MetroMix® 306 planting mixture, which typically has a pH of 6.0 to 6.8 and an organic matter content of about 30 percent, in plastic plug trays. Seedlings at the second or third leaf stage of growth were transplanted into 840 mL of mud contained in 32-oz. non-perforated plastic pots with a surface area of 86.59 cm^2 4 days prior to herbicide application. The paddy was created by filling the headspace of the pots with 2.5 to 3 cm of water. When required to ensure good germination and healthy plants, a fungicide treatment and/or other chemical or physical treatment was applied. The plants were grown for 4-22 days in a greenhouse with an approximate 14 hr photoperiod which was maintained at about 29′C during the day and 26° C. during the night. Nutrients were added as Osmocote® (19:6:12, N:P:K^+ minor nutrients) at 2 g per 16-oz. pot and 4 g per 32-oz. pot. Water was added on a regular basis to maintain the paddy flood, and supplemental lighting was provided with overhead metal halide 1000-Watt lamps as necessary. The plants were employed for testing when they reached the first through fourth true leaf stage.
as §2, with “(compound A)” for “(Compound A),”, “concentrate)” for “concentrate),”
(§9) Other herbicidal components were applied on an active ingredient basis and included acetolactate synthase (ALS)-inhibiting herbicides formulated as Permit® 75 WDG, pyrazosulfuron-ethyl formulated as Agreen® WG or Sirius® G, and VLCFA inhibiting herbicide esprocarb (technical grade material).
(§10) Treatment requirements for each compound or herbicidal component were calculated based upon the rates being tested, the concentration of active ingredient or acid equivalent in the formulation, an application volume of 2 mL per component per pot, and an application area of 86.59 cm^2 per pot.
(§11) For formulated compounds, a measured amount was placed in an individual 100 or 200 mL glass vial and was dissolved in a volume of 1.25% (v/v) Agri-Dex® crop oil concentrate to obtain application solutions.
(§12) For technical grade compounds, a weighed amount was placed in an individual 100 to 200 mL glass vial and was dissolved in a volume of acetone to obtain concentrated stock solutions. […] The concentrated stock solutions obtained were diluted with an equivalent volume of an aqueous mixture containing 2.5% (v/v) crop oil concentrate so that the final application solutions contained 1.25% (v/v) crop oil concentrate.
(§13) Applications were made by injecting with a pipetter appropriate amounts of the application solutions, individually and sequentially, into the aqueous layer of the paddy. Control plants were treated in the same manner with the solvent blank. Applications were made so that all treated plant material received the same concentrations of acetone and crop oil concentrate.
(§14) The treated plants and control plants were placed in a greenhouse as described above and water was added as needed to maintain a paddy flood. […]

DIGSA = experiment: Post-emergence foliar-applied herbicidal mixtures, greenhouse, direct seeded rice weeds; format: in vivo, Digitaria sanguinalis (L.) Scop.
Excerpt: as §1, §2, §3, §4, §5, §6, §7

ECHOR = experiment: In-water applied herbicidal mixtures, greenhouse, transplanted paddy rice weeds; format: in vivo, Echinochloa oryzoides (Ard.) Fritsch
Protocol: as §8
as §2, with “(compound A)” for “(Compound A),”, “concentrate)” for “concentrate),”
as §9, §10, §11, §12, §13, §14

CYPRO = experiment: as above; format: in vivo, Cyperus rotundus L.
Protocol: as §8
as §2, with “(compound A)” for “(Compound A),”, “concentrate)” for “concentrate),”
as §9, §10, §11, §12, §13, §14

ECHCG = experiment: as above; format: in vivo, Echinochloa crus-galli (L.) Beauv.; details: 17.5 g ai/ha
Protocol: as §8, with “Water was added on a regular basis to maintain the paddy flood, and supplemental lighting was provided with overhead metal halide 1000-Watt lamps as necessary. The plants were employed for testing when they reached the first through fourth true leaf stage.” left out
as §10
(§15) For formulated compounds, a measured amount was placed in an individual 100 or 200 mL glass vial and was dissolved in a volume of 1.25% (v/v) Agri-Dex® crop oil concentrate to obtain application solutions. […]

LEFCH [2] = experiment: as above; format: in vivo, Leptochloa chinensis (L.) Nees
Protocol: as §8, with “Water was added on a regular basis to maintain the paddy flood, and supplemental lighting was provided with overhead metal halide 1000-Watt lamps as necessary. The plants were employed for testing when they reached the first through fourth true leaf stage.” left out
as §10, §15

With `COC(=O)c1c(Cl)nn(C)c1S(=O)(=O)NC(=O)Nc1nc(OC)cc(OC)n1` [Halosulfuron-methyl, methyl 3-chloro-5-[[[[(4,6-dimethoxy-2-pyrimidinyl)amino]carbonyl]amino]sulfonyl]-1-methyl-1H-pyrazole-4-carboxylate, reference compound] the “Visual Weed Control (%) - 20 DAA BRAPP Obs” value (BRAPP; 4.38 g ai/ha) was 0%, the “Visual Weed Control (%) - 20 DAA BRAPP Obs” value (BRAPP; 8.75 g ai/ha) was 0% and the “Visual Weed Control (%) - 20 DAA BRAPP Obs” value (BRAPP; 17.5 g ai/ha) was 0%. For the same compound, the “Visual Weed Control (%) - 20 DAA LEFCH Obs” value (LEFCH [1]; 8.75 g ai/ha) was 0%, the “Visual Weed Control (%) - 20 DAA LEFCH Obs” value (LEFCH [1]; 17.5 g ai/ha) was 0% and the “Visual Weed Control (%) - 20 DAA LEFCH Obs” value (LEFCH [1]; 35 g ai/ha) was 5%. The “Visual Weed Control (%) - 20 DAA SCPMA Obs” value (SCPMA; 35 g ai/ha) was 65%, the “Visual Weed Control (%) - 20 DAA DIGSA Obs” value (DIGSA; 35 g ai/ha) was 10% and the “Visual Weed Control (%) - 21 DAA ECHOR Obs” value (ECHOR; 8.75 g ai/ha) was 0%. The “Visual Weed Control (%) - 21 DAA ECHOR Obs” value (ECHOR; 17.5 g ai/ha) was 0%, the “Visual Weed Control (%) - 20 DAA ECHOR Obs” value (ECHOR; 35 g ai/ha) was 0% and the “Visual Weed Control (%) - 21 DAA CYPRO Obs” value (CYPRO; 8.75 g ai/ha) was 60%. The “Visual Weed Control (%) - 21 DAA CYPRO Obs” value (CYPRO; 17.5 g ai/ha) was 100% and the “Visual Weed Control (%) - 21 DAA ECHCG Obs” value (ECHCG) was 0%.
In the case of `CCOC(=O)c1cnn(C)c1S(=O)(=O)NC(=O)Nc1nc(OC)cc(OC)n1` [Pyrazosulfuron-ethyl, ethyl 5-[[[[(4,6-dimethoxy-2-pyrimidinyl)amino]carbonyl]amino]sulfonyl]-1-methyl-1H-pyrazole-4-carboxylate, reference compound], the “Visual Weed Control (%) - 21 DAA BRAPP Obs” value (BRAPP; 15 g ai/ha (Agreen WG)) is reported as 0%, the “Visual Weed Control (%) - 21 DAA BRAPP Obs” value (BRAPP; 30 g ai/ha (Agreen WG)) is reported as 0% and the “Visual Weed Control (%) - 21 DAA BRAPP Obs” value (BRAPP; 60 g ai/ha (Agreen WG)) is reported as 10%. The “Visual Weed Control (%) - 22 DAA SCPMA Obs” value (SCPMA; 17.5 g ai/ha (Sirius G)) was 80%, the “Visual Weed Control (%) - 22 DAA SCPMA Obs” value (SCPMA; 35 g ai/ha (Sirius G)) was 70% and the “Visual Weed Control (%) - 20 DAA DIGSA Obs” value (DIGSA; 120 g ai/ha (Agreen WG)) was 23%. The “Visual Weed Control (%) - 21 DAA DIGSA Obs” value (DIGSA; 120 g ai/ha (Agreen WG)) was 23%, the “Visual Weed Control (%) - 22 DAA ECHOR Obs” value (ECHOR; 17.5 g ai/ha (Sirius G)) was 0% and the “Visual Weed Control (%) - 22 DAA ECHOR Obs” value (ECHOR; 35 g ai/ha (Sirius G)) was 0%. The “Visual Weed Control (%) - 20 DAA ECHOR Obs” value (ECHOR; 70 g ai/ha (Sirius G)) was 70%, the “Visual Weed Control (%) - 22 DAA LEFCH Obs” value (LEFCH [2]; 17.5 g ai/ha (Sirius G)) was 0% and the “Visual Weed Control (%) - 22 DAA LEFCH Obs” value (LEFCH [2]; 35 g ai/ha (Sirius G)) was 0%.
